Test system: Human prostate cancer cell lines (PC-3 cells)
Experiment: Measurement of cell death-inducing activity (Test Example 1)
Type: cell-based
Conditions: PC-3, 48 h, 48 hours after addition, tested at 10, 1, 0.1, 0.025 and 0.00625 μmol/L, qualitative evaluation of 10 fields, read-out: Concentration showing the cell death-inducing activity (cell death-inducing rate not less than 40%)
Method: The cell death-inducing activity of the compound represented by the formula (1) or the salt thereof was measured as follows.
Human prostate cancer cell lines (PC-3 cells) were seeded to 6-well plates at 1×10^5 cells/2 mL/well, and cultured in the presence of 5% CO2 at 37° C. for 48 hours. Thereafter, each compound was added thereto so as to provide 10, 1, 0.1, 0.025 and 0.00625 μmol/L. As a control, DMSO was added. After the addition, the cells were continuously cultured for 48 hours. […] When the cell death-inducing rate was not less than 40%, the compound was judged to have the cell death-inducing activity.

Row | SMILES | minimal effective concentration
1 | Cc1ccc(-c2nc(C)c(NC(=O)OCc3ccc4c(cnn4C)c3)s2)c(C)c1 [Example 9-130] | 0.025 µM
2 | Cc1nc(-c2ccc(F)cc2Cl)sc1NC(=O)OCc1ccc2c(cnn2C)c1 [Example 9-131] | 0.1 µM
3 | CCc1ccccc1-c1nc(C)c(NC(=O)OCc2ccc3c(cnn3CC)c2)s1 [Example 9-133] | 0.1 µM
4 | CCn1ncc2cc(COC(=O)Nc3sc(-c4ccccc4OC)nc3C)ccc21 [Example 9-134] | 0.025 µM
5 | CCn1ncc2cc(COC(=O)Nc3sc(-c4ccc(F)cc4OC)nc3C)ccc21 [Example 9-135] | 0.025 µM
6 | CCn1ncc2cc(COC(=O)Nc3sc(-c4ccc(Cl)cc4OC)nc3C)ccc21 [Example 9-136] | 0.00625 µM
7 | CCn1ncc2cc(COC(=O)Nc3sc(-c4ccc(C)cc4OC)nc3C)ccc21 [Example 9-137] | 0.00625 µM
8 | CCn1ncc2cc(COC(=O)Nc3sc(-c4ccc(OC)cc4OC)nc3C)ccc21 [Example 9-138] | 0.025 µM
9 | CCn1ncc2cc(COC(=O)Nc3sc(-c4ccc(C)cc4C)nc3C)ccc21 [Example 9-139] | 0.025 µM
10 | CCn1ncc2cc(COC(=O)Nc3sc(-c4ccc(F)cc4C)nc3C)ccc21 [Example 9-140] | 0.025 µM
11 | CCn1ncc2cc(COC(=O)Nc3sc(-c4ccc(Cl)cc4C)nc3C)ccc21 [Example 9-141] | 0.025 µM
12 | CCc1ccccc1-c1nc(C)c(NC(=O)OCc2ccc3nn(C)cc3c2)s1 [Example 9-142] | 0.1 µM
13 | COc1cc(F)ccc1-c1nc(C)c(NC(=O)OCc2ccc3nn(C)cc3c2)s1 [Example 9-143] | 0.025 µM
14 | COc1cc(Cl)ccc1-c1nc(C)c(NC(=O)OCc2ccc3nn(C)cc3c2)s1 [Example 9-144] | 0.025 µM
15 | COc1cc(C)ccc1-c1nc(C)c(NC(=O)OCc2ccc3nn(C)cc3c2)s1 [Example 9-145] | 0.025 µM
16 | COc1ccc(-c2nc(C)c(NC(=O)OCc3ccc4nn(C)cc4c3)s2)c(OC)c1 [Example 9-146] | 0.1 µM
17 | Cc1ccc(-c2nc(C)c(NC(=O)OCc3ccc4nn(C)cc4c3)s2)c(C)c1 [Example 9-147] | 0.025 µM
18 | Cc1nc(-c2ccc(F)cc2Cl)sc1NC(=O)OCc1ccc2nn(C)cc2c1 [Example 9-148] | 1 µM
19 | Cc1cc(F)ccc1-c1nc(C)c(NC(=O)OCc2ccc3nn(C)cc3c2)s1 [Example 9-149] | 1 µM
20 | Cc1cc(Cl)ccc1-c1nc(C)c(NC(=O)OCc2ccc3nn(C)cc3c2)s1 [Example 9-150] | 0.025 µM
21 | CCc1ccccc1-c1nc(C)c(NC(=O)OCc2ccc3nn(CC)cc3c2)s1 [Example 9-151] | 1 µM
22 | CCn1cc2cc(COC(=O)Nc3sc(-c4ccccc4OC)nc3C)ccc2n1 [Example 9-152] | 0.1 µM
23 | CCn1cc2cc(COC(=O)Nc3sc(-c4ccc(F)cc4OC)nc3C)ccc2n1 [Example 9-153] | 0.025 µM
24 | CCn1cc2cc(COC(=O)Nc3sc(-c4ccc(Cl)cc4OC)nc3C)ccc2n1 [Example 9-154] | 0.025 µM

Row | SMILES | minimal effective concentration
25 | CCn1cc2cc(COC(=O)Nc3sc(-c4ccc(OC)cc4OC)nc3C)ccc2n1 [Example 9-156] | 0.1 µM
26 | CCn1cc2cc(COC(=O)Nc3sc(-c4ccc(C)cc4C)nc3C)ccc2n1 [Example 9-157] | 0.1 µM
27 | CCn1cc2cc(COC(=O)Nc3sc(-c4ccc(F)cc4C)nc3C)ccc2n1 [Example 9-158] | 1 µM
28 | CCc1nc(-c2ccc(Cl)cc2OC)sc1NC(=O)OCc1ccc2c(c1)nnn2CC [Example 9-160] | 0.025 µM
29 | CCc1nc(-c2ccccc2OC)sc1NC(=O)OCc1ccc2c(c1)ncn2C [Example 9-161] | 0.025 µM
30 | CCc1nc(-c2ccccc2OC)sc1NC(=O)OCc1ccc2c(c1)ncn2CC [Example 9-162] | 0.1 µM
31 | CCc1nc(-c2ccc(F)cc2C)sc1NC(=O)OCc1ccc2c(c1)ncn2C [Example 9-163] | 0.025 µM
32 | CCc1nc(-c2ccc(Cl)cc2OC)sc1NC(=O)OCc1ccc2c(c1)ncn2CC [Example 9-164] | 0.025 µM
33 | CCc1nc(-c2ccc(C)cc2OC)sc1NC(=O)OCc1ccc2c(c1)ncn2CC [Example 9-165] | 0.00625 µM
34 | CCc1nc(-c2ccc(C)cc2C)sc1NC(=O)OCc1ccc2c(c1)ncn2CC [Example 9-166] | 0.025 µM
35 | CCc1nc(-c2ccc(F)cc2C)sc1NC(=O)OCc1ccc2c(c1)ncn2CC [Example 9-167] | 0.025 µM
36 | CCc1nc(-c2ccccc2OC)sc1NC(=O)OCc1ccc2c(c1)nc1n2CCOC1 [Example 9-168] | 0.1 µM
37 | CCc1nc(-c2ccc(Cl)cc2OC)sc1NC(=O)OCc1ccc2c(c1)nc1n2CCOC1 [Example 9-169] | 0.00625 µM
38 | CCc1nc(-c2ccc(Cl)cc2OC)sc1NC(=O)OCc1ccc2c(c1)nc1n2CCC1 [Example 9-170] | 0.025 µM
39 | CCc1nc(-c2ccc(C)cc2OC)sc1NC(=O)OCc1ccc2c(c1)nc1n2CCC1 [Example 9-171] | 0.025 µM
40 | CCc1nc(-c2ccc(Cl)cc2OC)sc1NC(=O)OCc1ccc2c(c1)nc1n2CCCC1 [Example 9-172] | 0.025 µM
41 | CCc1nc(-c2ccc(Cl)cc2OC)sc1NC(=O)OCc1ccc2c(cnn2CC)c1 [Example 9-173] | 0.025 µM
42 | CCc1nc(-c2ccc(C)cc2OC)sc1NC(=O)OCc1ccc2c(cnn2CC)c1 [Example 9-174] | 0.025 µM
43 | CCc1nc(-c2ccc(C)cc2C)sc1NC(=O)OCc1ccc2c(cnn2CC)c1 [Example 9-175] | 0.1 µM
44 | CCc1nc(-c2ccc(Cl)cc2OC)sc1NC(=O)OCc1ccc2nn(CC)cc2c1 [Example 9-176] | 0.025 µM
45 | CCn1cnc2cc(COC(=O)Nc3cnc(-c4ccc(Cl)cc4OC)s3)ccc21 [Example 9-177] | 0.1 µM
46 | COc1ccccc1-c1ncc(NC(=O)OCc2ccc3c(c2)ncn3C)s1 [Example 9-178] | 10 µM
47 | CCn1ncc2cc(COC(=O)Nc3cnc(-c4ccccc4OC)s3)ccc21 [Example 9-179] | 10 µM
48 | CCc1nc(-c2ccc(Cl)cc2OC)sc1NC(=O)OCc1ccc2c(c1)ncn2C [Example 9-181] | 0.00625 µM

Row | SMILES | minimal effective concentration
49 | CCc1nc(-c2ccc(C)cc2C)sc1NC(=O)OCc1ccc2c(c1)ncn2C [Example 9-182] | 0.025 µM
50 | CCCc1nc(-c2ccc(Cl)cc2OC)sc1NC(=O)OCc1ccc2c(c1)ncn2C [Example 9-183] | 1 µM
51 | CCCc1nc(-c2ccc(C)cc2C)sc1NC(=O)OCc1ccc2c(c1)ncn2C [Example 9-184] | 1 µM
52 | Cc1ccc(-c2nc(C3CC3)c(NC(=O)OCc3ccc4c(c3)ncn4C)s2)c(C)c1 [Example 9-185] | 0.1 µM
53 | Cc1cc(Cl)ccc1-c1nc(C(F)(F)F)c(NC(=O)OCc2ccc3c(c2)ncn3C)s1 [Example 9-186] | 1 µM
54 | Cc1nc(-c2cccs2)sc1NC(=O)OCc1ccc2c(c1)ncn2C [Example 9-191] | 10 µM
55 | Cc1nc(-c2sccc2Cl)sc1NC(=O)OCc1ccc2c(c1)ncn2C [Example 9-192] | 1 µM
56 | Cc1nc(-c2ccc(Cl)s2)sc1NC(=O)OCc1ccc2c(c1)ncn2C [Example 9-193] | 1 µM
57 | Cc1cccnc1-c1nc(C)c(NC(=O)OCc2ccc3c(c2)ncn3C)s1 [Example 9-195] | 10 µM
58 | CCn1cnc2cc(COC(=O)Nc3sc(-c4ncccc4C)nc3C)ccc21 [Example 9-196] | 10 µM
59 | COc1cc(Cl)ccc1-c1nc(C)c(NC(=O)OCc2ccc3nc(C)c(C)nc3c2)s1 [Example 9-200] | 1 µM
60 | Cn1nc(-c2ccccc2)cc1NC(=O)OCc1ccc2c(c1)ncn2C [Example 9-204] | 10 µM
61 | Cc1ccccc1-c1cc(NC(=O)OCc2ccc3c(c2)ncn3C)n(C)n1 [Example 9-205] | 1 µM
62 | Cn1nc(-c2ccc(Cl)cc2Cl)cc1NC(=O)OCc1ccc2c(c1)ncn2C [Example 9-207] | 0.025 µM
63 | CCn1nc(-c2ccc(Cl)cc2Cl)cc1NC(=O)OCc1ccc2c(c1)ncn2C [Example 9-208] | 0.025 µM
64 | CCn1cnc2cc(COC(=O)Nc3cc(-c4ccc(Cl)cc4Cl)nn3C)ccc21 [Example 9-209] | 0.025 µM
65 | CCn1nc(-c2ccc(Cl)cc2Cl)cc1NC(=O)OCc1ccc2c(c1)ncn2CC [Example 9-210] | 0.1 µM
66 | CCn1nc(-c2ccc(Cl)c(Cl)c2)cc1NC(=O)OCc1ccc2c(c1)ncn2C [Example 9-211] | 10 µM
67 | CCn1cnc2cc(COC(=O)Nc3cc(-c4ccccc4C(F)(F)F)nn3C)ccc21 [Example 9-212] | 10 µM
68 | COc1ccccc1-c1cc(NC(=O)OCc2ccc3c(c2)ncn3C)n(C)n1 [Example 9-213] | 0.025 µM
69 | CCn1nc(-c2ccccc2OC)cc1NC(=O)OCc1ccc2c(c1)ncn2C [Example 9-214] | 0.1 µM
70 | CCn1cnc2cc(COC(=O)Nc3cc(-c4ccccc4OC)nn3C)ccc21 [Example 9-215] | 0.1 µM
71 | CCn1nc(-c2ccccc2OC)cc1NC(=O)OCc1ccc2c(c1)ncn2CC [Example 9-216] | 1 µM
72 | COc1cc(F)ccc1-c1cc(NC(=O)OCc2ccc3c(c2)ncn3C)n(C)n1 [Example 9-217] | 0.025 µM

Reference: patent publication US9200008B2 (ASKA PHARMACEUTICAL CO., LTD., priority 2010, dated 2015)
